The values that follow come from patent US4335138A, “Novel carbamates, their preparation, and pharmaceutical formulations containing these compounds” (BASF Aktiengesellschaft, priority 1979, dated 1982).

Data set [1] has as its system rats. Put plainly: Hypnotic action on intraperitoneal administration (period of absence of the righting reflex, duration of sleep). Conditions: for ED (60 min sleep): Rattus norvegicus, 1 h, dose which causes a 60 minute period of sleep, regression analysis. It is filed as in vivo, female Sprague-Dawley rats. The protocol:
To investigate the hypnotic action, these substances are administered intraperitoneally to groups of 4-8 female Sprague-Dawley rats each weighing 145-200 g. The period of absence of the righting reflex (ie. the duration of sleep) served as a criterion of the hypnotic action.
Linear relationships exist between the logarithms of the administered doses (mg/kg) and the logarithms of the period of sleep (min), from which relationships the dose which causes a 60 minute period of sleep is calculated, as the ED 60 min, by regression analysis.

The next data set can be described thus: in vivo. The conditions noted are these: rat, ip; for selectivity ratio: Therapeutic range. How it is done:
(§1) The acute toxicity is determined on groups of 10 rats of the same strain as above, again for intraperitoneal administration.
(§2) The comparison substance used is the well known hypnotic Ethinamate (1-ethynyl-cyclohexyl carbamate).

For data set [2] the following is noted: German Laid-Open Application DOS No. 2,346,305; cited from earlier work.
In data set [3] the test system is rats. Put plainly: in vivo. Conditions: rat, ip, 681 mg/kg. The protocol:
as §1, §2

The structures appear in SMILES notation. Bounds are passed on as bounds.

With `CCCNC(=O)OC[C@@]1(C(C)=O)C[C@@H]2C=C[C@H]1C2` (relative stereo) [Example 4, exo-2-(N-n-propylcarbamyloxymethyl)-norborn-5-en-2-yl methyl ketone], the ED (60 min sleep) with rats [1] (ip, intraperitoneal, rats) came out at 21.5 mg/kg. In the data set with rats [1] (rat, in vivo, ip), the “R.A. (relative activity)” value worked out at 3.22. In “in vivo”, the LD50 (usually the dose at which mortality reaches 50%) at 6 h turned out to be 392 mg/kg and the selectivity ratio worked out at 18.2.

On to `CC(=O)[C@]1(COC(=O)NC(C)C)C[C@@H]2C=C[C@H]1C2` (relative stereo) [Example 7, exo-2-(N-isopropylcarbamyloxymethyl)-norborn-5-en-2-yl methyl ketone], for which, in the data set with rats [1] (ip, intraperitoneal, rats), the ED (60 min sleep) worked out at 20.7 mg/kg. Further, the “R.A. (relative activity)” value with rats [1] (rat, in vivo, ip) was 3.35. Besides, in the data set “in vivo”, the 50% lethal dose (LD50) at 6 h stood at 137 mg/kg and the selectivity ratio was determined as 6.6.

As for `CC(=O)[C@]1(COC(=O)NC2CCCC2)C[C@@H]2C=C[C@H]1C2` (relative stereo) [Example 15, exo-2-(N-cyclopentylcarbamyloxymethyl)-norborn-5-en-2-yl methyl ketone], the ED (60 min sleep) with rats [1] (ip, intraperitoneal, rats) worked out at 46.4 mg/kg. In the data set with rats [1] (rat, in vivo, ip), the “R.A. (relative activity)” value was determined as 1.49. Further, in the data set “in vivo”, the median lethal dose (LD50) at 6 h came to 247 mg/kg and the selectivity ratio came to 5.3.

In the case of `CC(=O)[C@]1(COC(=O)NC(C)C)C[C@@H]2CC[C@H]1C2` (relative stereo) [Example 36, exo-2-(N-isopropylcarbamyloxymethyl)-norborn-2-yl methyl ketone], the ED (60 min sleep) in the data set on rats [1] (ip, intraperitoneal, rats) is 37.6 mg/kg. The “R.A. (relative activity)” value with rats [1] (rat, in vivo, ip) turned out to be 1.84. Besides, in “in vivo”, the LD50 at 6 h is 464 mg/kg and the selectivity ratio was 12.3.

`CC(=O)[C@]1(COC(=O)NCC(C)C)C[C@@H]2C=C[C@H]1C2` (relative stereo) [Example 87, exo-2-(N-(2-methylpropyl)-carbamyloxymethyl)-norborn-5-en-2-yl methyl ketone] came in with an ED (60 min sleep) with rats [1] (ip, intraperitoneal, rats) of 46.7 mg/kg. Moreover, in the data set with rats [1] (rat, in vivo, ip), the “R.A. (relative activity)” value is 1.48. For the same molecule, in “in vivo”, the LD50 at 6 h came to 482 mg/kg and the selectivity ratio was found to be 10.3.

The molecule `CC(=O)[C@]1(COC(=O)NC2CC2)C[C@@H]2C=C[C@H]1C2` (relative stereo) [Example 109, exo-2-(N-cyclopropylcarbamyloxymethyl)-norborn-5-en-2-yl methyl ketone] gave an ED (60 min sleep) in the data set on rats [1] (ip, intraperitoneal, rats) of 27.2 mg/kg. In addition, in the data set with rats [1] (rat, in vivo, ip), the “R.A. (relative activity)” value came to 2.55. Besides, in “in vivo”, the LD50 at 6 h was determined as 187 mg/kg and the selectivity ratio is 6.9.

On to `CNC(=O)OC1OC(=O)C2C3C=CC(C3)C12` (stereo not shown) [4-oxa-5-(5-methylcarbamyloxy)-tricyclo[5,2,1,0^2,6]-dec-8-en-3-one], for which the “Analgesic properties (in words), prior art” value in data set [2] is recorded as “exhibit analgesic properties”.

With `C#CC1(OC(N)=O)CCCCC1` [Ethinamate, 1-ethynyl-cyclohexyl carbamate, reference compound], the “R.A. (relative activity)” value with rats [1] (Ethinamate = 1.00, intraperitoneal, rats) is 1.00. The molecule also yielded an ED (60 min sleep) in the data set with rats [1] (ip, intraperitoneal, rats) of 69.3 mg/kg.

In turn, `CCCNC(=O)OCC1(C(C)=O)CC=CCC1` (stereo not shown) [Example 52, 1-(N-propylcarbamyloxymethyl)-cyclohex-3-enyl methyl ketone] displayed an ED (60 min sleep) with rats [1] (ip, intraperitoneal, rats) of 28.5 mg/kg. The “R.A. (relative activity)” value in the data set with rats [1] (rat, in vivo, ip) is recorded as 2.43. Moreover, in the data set “in vivo”, the median lethal dose (LD50) at 6 h came to 215 mg/kg and the selectivity ratio is 7.5.

In the data set with rats [1] (ip, intraperitoneal, rats), `CCC(C)NC(=O)OC[C@@]1(C(C)=O)C[C@@H]2C=C[C@H]1C2` (stereo partly drawn) [Example 88, exo-2-(N-but-2-yl-carbamyloxymethyl)-norborn-5-en-2-yl methyl ketone] displayed an ED (60 min sleep) of 30.8 mg/kg. Besides, the “R.A. (relative activity)” value in the data set on rats [1] (rat, in vivo, ip) amounted to 2.25. For the same molecule, in “in vivo”, the LD50 at 6 h was 150 mg/kg and the selectivity ratio is 4.9.

In turn, `CC(=O)[C@]1(COC(=O)NC(C)C2CC2)C[C@@H]2C=C[C@H]1C2` (stereo partly drawn) [Example 98, exo-2-[N-(1-cyclopropylethyl)-carbamyloxymethyl]-norborn-5-en-2-yl methyl ketone] displayed an ED (60 min sleep) in the data set on rats [1] (ip, intraperitoneal, rats) of 30.3 mg/kg. In addition, the “R.A. (relative activity)” value with rats [1] (rat, in vivo, ip) is given as 2.29. For the same molecule, in the data set with rats [3], the Mortality rate is reported as 0/10. Further, in the data set “in vivo”, the median lethal dose (LD50) at 6 h was at least 681 mg/kg and the selectivity ratio is at least 22.5.
